Publication PMC10648852, “Molecular drivers of resistance to sulbactam-durlobactam in contemporary clinical isolates of Acinetobacter baumannii” (Antimicrobial Agents and Chemotherapy, 2023)
Read-outs that look alike come from different tables or passages of the source.

Legend:
[1] = test system: A. baumannii KAB1544 and efflux overexpression mutants; test: Broth microdilution MIC, isogenic A. baumannii overexpression efflux mutants; assay type: cell-based; conditions: for MIC: Acinetobacter baumannii
Protocol: (§1) To further assess the role of efflux in SUL-DUR activity against Acinetobacter spp., two panels of A. baumannii isogenic strains were tested. The first consisted of 7 members of an A. baumannii transposon library ([28]) with single gene disruptions in the adeABC, adeIJK, or adeT loci as compared to the parent strain, AB5075. […] This panel of strains consists of four different point mutants in AdeR and five different point mutants in AdeS, which result in the upregulation of AdeABC expression. In addition, this panel contains chromosomal deletions of adeL and adeN, which result in overexpression of AdeFGH and AdeIJK, respectively ([29]).
In contrast, sulbactam, SUL-DUR, and imipenem MIC values were unaffected by these mutants (Table 4).
(§2) The AB5075 parent strain as well as transposon interrupted AdeABC, AdeIJK, and AdeT were purchased from the Manoil laboratory at the University of Washington from their arrayed transposon mutant collection ([28]). The KAB1544 parent as well as efflux pump regulator mutants and deletions were constructed as previously described ([29]).
(§3) Antimicrobial susceptibility testing was performed using broth microdilution following standardized methods established by the Clinical Laboratory Standards Institute (CLSI) ([35], [36]). Quality control testing was performed as specified by CLSI using A. baumannii NCTC 13304 ([35]). MIC values were interpreted using CLSI breakpoints for all antimicrobial agents except those for which CLSI breakpoints are not available ([35]). SUL-DUR was tested as twofold dilutions of sulbactam in combination with a fixed concentration of 4 µg/mL durlobactam ([35]).

[2] = test system: A. baumannii AB5075 and transposon mutants in efflux genes; test: Broth microdilution MIC, isogenic A. baumannii transposon mutants in efflux genes; assay type: cell-based; conditions: for In vitro activity (MIC): tested in duplicate
Protocol: as §1
The parent and each isogenic mutant strain in both panels was measured for susceptibility to sulbactam, durlobactam, SUL-DUR, imipenem, and gentamicin. […].
as §2, §3

[3] = test system: isogenic A. baylyi ADP1 panel encoding wildtype or mutant PBP3; test: Broth microdilution MIC, isogenic A. baylyi panel (PBP3 variants with or without overexpressed β-lactamases); assay type: cell-based; conditions: for MIC: Acinetobacter baylyi, A. baylyi
Protocol: To understand the effect of PBP3 variants on whole cell activity in the absence of other resistance determinants, the MIC values of sulbactam, SUL-DUR and comparator β-lactams were measured against an isogenic A. baylyi panel engineered to contain individual strains in which the endogenous PBP3 was replaced with the variant of interest.
Each of the A. baylyi panel members were then transformed with plasmids that constitutively expressed five distinct, representative β-lactamases commonly found in Acinetobacter clinical isolates (TEM-1, ADC-30, OXA-23, OXA-24 or OXA-66) and evaluated for changes in antibiotic susceptibility. […] . […] .
The isogenic A. baylyi panel used for chromosomal expression of various PBP3 mutants with or without constitutive expression of various β-lactamases were constructed as part of this study. The A. baylyi ADP1 PBP3 ORF was cloned into pUC19 with a gentamicin cassette inserted downstream of the PBP3 ORF for selection purposes. Additionally, 500 bp of flanking homology to the ADP1 genome were inserted upstream of the PBP3 ORF and downstream of the gentamicin cassette. […] Linear DNA consisting of the 500 bp upstream-PBP3-Gent-500 bp downstream fragment was cloned out of the pUC19 plasmid by PCR and used for transformation of the ADP1 strain. The strain was grown at 30°C overnight in LB medium shaking at 250 rpm. Seventy microliters of the overnight ADP1 culture were combined with 1 mL of fresh LB and 200 ng of linear DNA fragment and incubated for 5 h at 30°C and shaking at 200 rpm. Various dilutions of each culture were plated on LB agar supplemented with 10 µg/mL of gentamicin to select for transformants with successful chromosomal integrations. Integrants were verified by Sanger sequencing using purified genomic DNA.
For the constitutive expression of various β-lactamases, ORFs of bla TEM-1, bla ADC-30, bla OXA-23, bla OXA-24, and bla OXA-66 were cloned by PCR from various clinical strains that encode these genes and inserted into the pWH1266 plasmid modified to encode a kanamycin cassette for selection. These plasmids along with an empty vector were used to transform each of the A. baylyi ADP1 strains engineered above that encode wild-type PBP3 or variants. Transformations were carried out as done above with selection on LB agar supplemented with 20 µg/mL of kanamycin.
as §3

A. baumannii PBP3 H370Y = test: Acylation rate constant (kinact/Ki), fluorescence anisotropy competition with BOCILLIN
A. baumannii PBP3 S395F [4] = test: as above; conditions: variant data from McLeod et al. (2018)
A. baumannii PBP3 S390T [5] = test: as above; conditions: variant data from McLeod et al. (2018)
A. baumannii PBP3 Q488K = test: as above
A. baumannii PBP3 N377Y = test: as above
A. baumannii PBP3 S395F [6] = test system: A. baumannii PBP3 S395F; set-up: method as in McLeod et al. (2018); conditions: average ± SD, ref McLeod et al. (2018); cited from earlier work
A. baumannii PBP3 S390T [7] = test system: A. baumannii PBP3 S390T; set-up: method as in McLeod et al. (2018); conditions: average ± SD, ref McLeod et al. (2018); cited from earlier work
[8] = test system: A. baumannii wild-type PBP3; test: Acylation rate constant (kinact/Ki), fluorescence anisotropy competition with BOCILLIN; conditions: Wildtype PBP3
A. baumannii PBP3 N392T = test: as above
[9] = test system: ARC7093 (AdeJ [G288S]) versus NCTC 13304; test: Ethidium bromide uptake (accumulation) assay; assay type: cell-based, A. baumannii; conditions: over 20 min; 8 µM EtBr; P < 0.0001
Text: This AdeJ variant has been previously described in the context of carbapenem resistance due to the overexpression of the AdeJ pump, although the association was only made based on genotype, not phenotype ([31]). The efflux capacity of ARC7093 was, therefore, compared to NCTC 13304, a SUL-DUR-susceptible clinical isolate with wild-type AdeIJK, in an ethidium bromide accumulation assay. […] Therefore, the AdeJ (G288S) variant may play a role in susceptibility to SUL-DUR in Acinetobacter spp.
NCTC 13304 and ARC7093 were cultured overnight on Tryptic Soy Blood Agar plates. Single colonies were used to inoculate 2 mL of Mueller-Hinton Cation-adjusted Broth (MHBII) and grown overnight at 35°C with shaking. On the day of the experiment, the overnight culture was diluted 100-fold into a flask containing 20 mL of MHBII and grown under the same conditions to OD600 ~0.2. Two-mL aliquots of this logarithmic phase culture were centrifuged. The pellets were gently re-suspended in 2-mL of sterile phosphate-buffered saline (pH 7.0) containing 8 µM EtBr. The cells were transferred to a black-wall, clear-bottom 96-well microplate, and EtBr fluorescence (excitation—530 nm, emission—590 nm) was measured over a period of 20 min in a SpectraMax M5e plate reader (Molecular Devices). Statistical significance for the accumulation of ethidium bromide was determined using an unpaired t-test.

[10] = AdeR A91V, AdeABC overexpressed, read-out: MIC
[11] = AdeR D20N, AdeABC overexpressed, read-out: MIC
[12] = AdeR E219A, AdeABC overexpressed, read-out: MIC
[13] = AdeR P116L, AdeABC overexpressed, read-out: MIC
[14] = AdeS A94V, AdeABC overexpressed, read-out: MIC
[15] = AdeS G30D, AdeABC overexpressed, read-out: MIC
[16] = AdeS G103D, AdeABC overexpressed, read-out: MIC
[17] = AdeS R152K, AdeABC overexpressed, read-out: MIC
[18] = AdeS T153M, AdeABC overexpressed, read-out: MIC
[19] = Parent (KAB1544), no efflux pump overexpressed, read-out: MIC

Compound: CNC(C)C1CCC(N)C(OC2C(N)CC(N)C(OC3OCC(C)(O)C(NC)C3O)C2O)O1 (stereo not shown) [gentamicin]
- MIC [1, 10]: 32 mg/L
- MIC [1, 11]: 16 mg/L
- MIC [1, 12]: 2 mg/L
- MIC [1, 13]: 16 mg/L
- MIC [1, 14]: 16 mg/L
- MIC [1, 15]: 32 mg/L
- MIC [1, 16]: 2 mg/L
- MIC [1, 17]: 16 mg/L
- MIC [1, 18]: 32 mg/L
- MIC [1, 19]: 2 mg/L
- MIC ([1]; ΔadeL, AdeFGH overexpressed): 2 mg/L
- MIC ([1]; ΔadeN, AdeIJK overexpressed): 2 mg/L
- change in MIC values relative to the parent strain ([1]; {}): 8- to 16 fold
- MIC shift as compared to the parent strain ([2]; AdeA disruption, AB5075): > 64 fold
- MIC shift as compared to the parent strain ([2]; AdeB disruption, AB5075): > 8 fold
- In vitro activity (MIC) ([2]; Parent (AB5075)): > 64 mg/L
- In vitro activity (MIC) ([2]; adeA::tn in AB5075): 1 mg/L
- In vitro activity (MIC) ([2]; adeB::tn in AB5075): 8 mg/L
- In vitro activity (MIC) ([2]; adeC::tn in AB5075): > 64 mg/L
- In vitro activity (MIC) ([2]; adeI::tn in AB5075): > 64 mg/L
- In vitro activity (MIC) ([2]; adeJ::tn in AB5075): > 64 mg/L
- In vitro activity (MIC) ([2]; adeK::tn in AB5075): > 64 mg/L
- In vitro activity (MIC) ([2]; adeT::tn in AB5075): > 64 mg/L

Compound: C[C@H]1[C@H](NC(=O)/C(=N\OC(C)(C)C(=O)O)c2csc(N)n2)C(=O)N1S(=O)(=O)O [aztreonam]
- MIC ([3]; PBP3 H370Y, overexpressed ADC-30): 32 mg/L
- MIC ([3]; PBP3 H370Y, overexpressed OXA-23): 64 mg/L
- MIC ([3]; PBP3 H370Y, overexpressed OXA-24): 64 mg/L
- MIC ([3]; PBP3 H370Y, overexpressed OXA-66): 64 mg/L
- MIC ([3]; PBP3 H370Y, overexpressed TEM-1): 64 mg/L
- MIC ([3]; PBP3 H370Y, β-lactamase None (empty vector)): 64 mg/L
- MIC ([3]; PBP3 Wildtype, overexpressed ADC-30, read-out: MIC): 32 mg/L
- MIC ([3]; PBP3 Wildtype, overexpressed OXA-23, read-out: MIC): 64 mg/L
- MIC ([3]; PBP3 Wildtype, overexpressed OXA-24, read-out: MIC): 32 mg/L
- MIC ([3]; PBP3 Wildtype, overexpressed OXA-66, read-out: MIC): 32 mg/L
- MIC ([3]; PBP3 Wildtype, overexpressed TEM-1, read-out: MIC): 32 mg/L
- MIC ([3]; PBP3 Wildtype, β-lactamase None (empty vector), read-out: MIC): 32 mg/L
- changes in MIC values in the presence of β-lactamase ([3]; wildtype PBP3 strain, five overexpressed β-lactamases): ≤ 2 fold
- % WT (A. baumannii PBP3 H370Y): 61.4%
- k inact/K i (A. baumannii PBP3 H370Y; average ± SD): 430 ± 30 ([2]) M^-1s^-1
- % WT (A. baumannii PBP3 S395F [4]): 15.7%
- % WT (A. baumannii PBP3 S390T [5]): 128.6%
- % WT (A. baumannii PBP3 Q488K): 65.7%
- k inact/K i (A. baumannii PBP3 Q488K; average ± SD): 460 ± 50 ([2]) M^-1s^-1
- % WT (A. baumannii PBP3 N377Y): 72.9%
- k inact/K i (A. baumannii PBP3 N377Y; average ± SD): 510 ± 60 ([2]) M^-1s^-1
- k inact/K i (A. baumannii PBP3 S395F [6]): 110 ± 20 ([3]) M^-1s^-1
- k inact/K i (A. baumannii PBP3 S390T [7]): 900 ± 300 ([3]) M^-1s^-1
- % WT [8]: 100%
- k inact/K i ([8]; average ± SD): 700 ± 100 ([10]) M^-1s^-1
- % WT (A. baumannii PBP3 N392T): 22.9%
- k inact/K i (A. baumannii PBP3 N392T; average ± SD): 160 ± 20 ([2]) M^-1s^-1

Compound: CC[n+]1c(-c2ccccc2)c2cc(N)ccc2c2ccc(N)cc21 [ethidium bromide]
- accumulation of ethidium bromide in ARC7093 versus NCTC 13304 [9]: significantly lower

Compound: CC1=C[C@@H]2CN(C(=O)N2OS(=O)(=O)O)[C@@H]1C(N)=O [durlobactam]
- MIC [1, 10]: 32 mg/L
- MIC [1, 11]: 64 mg/L
- MIC [1, 12]: 128 mg/L
- MIC [1, 13]: 64 mg/L
- MIC [1, 14]: 64 mg/L
- MIC [1, 15]: 64 mg/L
- MIC [1, 16]: 64 mg/L
- MIC [1, 17]: 64 mg/L
- MIC [1, 18]: 32 mg/L
- MIC [1, 19]: 128 mg/L
- MIC ([1]; ΔadeL, AdeFGH overexpressed): 64 mg/L
- MIC ([1]; ΔadeN, AdeIJK overexpressed): 128 mg/L
- In vitro activity (MIC) ([2]; Parent (AB5075)): 128 mg/L
- In vitro activity (MIC) ([2]; adeA::tn in AB5075): 64 mg/L
- In vitro activity (MIC) ([2]; adeB::tn in AB5075): 256 mg/L
- In vitro activity (MIC) ([2]; adeC::tn in AB5075): 256 mg/L
- In vitro activity (MIC) ([2]; adeI::tn in AB5075): 64 mg/L
- In vitro activity (MIC) ([2]; adeJ::tn in AB5075): 32 mg/L
- changes in MIC values as compared to the parent strain ([2]; adeK::Tn mutant, AB5075): 4 fold
- In vitro activity (MIC) ([2]; adeK::tn in AB5075): 32 mg/L
- In vitro activity (MIC) ([2]; adeT::tn in AB5075): 128 mg/L
- changes in MIC values as compared to the parent strain ([2]; {}): 4 fold
